Measured values published in ChEMBL document CHEMBL5316326, “Discovery of a Novel Covalent EZH2 Inhibitor Based on Tazemetostat Scaffold for the Treatment of Ovarian Cancer” (J Med Chem, 2023).
Activity calls are given as the source filed them. No cut-off for these calls is given here.

Assays:
[1] = biological target: T1, Histone-lysine N-methyltransferase EZH2 (Homo sapiens, UniProt Q15910); experiment: Inhibition of wild type EZH2 (unknown origin) by AlphaLlSA assay
Target sequence in this assay (Q15910 whole entry): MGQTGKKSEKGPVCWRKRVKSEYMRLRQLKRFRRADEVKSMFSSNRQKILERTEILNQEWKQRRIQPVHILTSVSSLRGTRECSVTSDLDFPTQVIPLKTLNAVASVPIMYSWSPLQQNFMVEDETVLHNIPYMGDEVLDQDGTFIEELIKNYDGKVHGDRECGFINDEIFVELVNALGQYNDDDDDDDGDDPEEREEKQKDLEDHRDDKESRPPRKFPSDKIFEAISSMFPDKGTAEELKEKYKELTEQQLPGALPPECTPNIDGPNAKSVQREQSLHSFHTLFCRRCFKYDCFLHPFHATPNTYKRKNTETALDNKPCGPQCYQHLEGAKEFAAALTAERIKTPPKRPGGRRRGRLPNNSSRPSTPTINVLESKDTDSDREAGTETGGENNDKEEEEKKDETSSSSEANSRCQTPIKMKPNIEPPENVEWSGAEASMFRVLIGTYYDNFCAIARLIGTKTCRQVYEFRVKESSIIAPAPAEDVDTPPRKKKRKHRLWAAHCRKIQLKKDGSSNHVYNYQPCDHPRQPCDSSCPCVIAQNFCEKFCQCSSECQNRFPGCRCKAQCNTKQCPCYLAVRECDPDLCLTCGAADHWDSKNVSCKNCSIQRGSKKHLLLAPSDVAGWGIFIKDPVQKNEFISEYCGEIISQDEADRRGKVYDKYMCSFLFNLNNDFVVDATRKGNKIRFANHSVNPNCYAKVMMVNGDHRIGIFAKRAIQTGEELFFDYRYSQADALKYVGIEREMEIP

[2] = biological target: T1, Histone-lysine N-methyltransferase EZH2; experiment: Covalent inhibition of EZH2 (unknown origin) assessed as slow change in dissociation rate preincubated for 60 mins followed by substrate addition and measured upto 90 mins using Mix-GL11 and 3H-SAM as substrate by spin column method; conditions: time > 150.0 min
Target sequence in this assay (Q15910 whole entry, looked up): as the sequence (Q15910 whole entry) above

[3] = tested on: Histone-lysine N-methyltransferase EZH2 (Homo sapiens), Q15910 [Y641F]; experiment: Inhibition of EZH2 […] mutant (unknown origin) at 1 nM by AlphaLlSA assay
Histone-lysine N-methyltransferase EZH2 (Homo sapiens), Q15910 [Y641F], sequence (Q15910 whole entry Y641F, looked up): as the sequence (Q15910 whole entry) above, with Y641F counted along it

[4] = biological target: Histone-lysine N-methyltransferase EZH1 (Homo sapiens) (UniProt Q92800); experiment: Inhibition of EZH1 (unknown origin) by AlphaLlSA assay
Histone-lysine N-methyltransferase EZH1 (Homo sapiens), sequence (Q92800 whole entry): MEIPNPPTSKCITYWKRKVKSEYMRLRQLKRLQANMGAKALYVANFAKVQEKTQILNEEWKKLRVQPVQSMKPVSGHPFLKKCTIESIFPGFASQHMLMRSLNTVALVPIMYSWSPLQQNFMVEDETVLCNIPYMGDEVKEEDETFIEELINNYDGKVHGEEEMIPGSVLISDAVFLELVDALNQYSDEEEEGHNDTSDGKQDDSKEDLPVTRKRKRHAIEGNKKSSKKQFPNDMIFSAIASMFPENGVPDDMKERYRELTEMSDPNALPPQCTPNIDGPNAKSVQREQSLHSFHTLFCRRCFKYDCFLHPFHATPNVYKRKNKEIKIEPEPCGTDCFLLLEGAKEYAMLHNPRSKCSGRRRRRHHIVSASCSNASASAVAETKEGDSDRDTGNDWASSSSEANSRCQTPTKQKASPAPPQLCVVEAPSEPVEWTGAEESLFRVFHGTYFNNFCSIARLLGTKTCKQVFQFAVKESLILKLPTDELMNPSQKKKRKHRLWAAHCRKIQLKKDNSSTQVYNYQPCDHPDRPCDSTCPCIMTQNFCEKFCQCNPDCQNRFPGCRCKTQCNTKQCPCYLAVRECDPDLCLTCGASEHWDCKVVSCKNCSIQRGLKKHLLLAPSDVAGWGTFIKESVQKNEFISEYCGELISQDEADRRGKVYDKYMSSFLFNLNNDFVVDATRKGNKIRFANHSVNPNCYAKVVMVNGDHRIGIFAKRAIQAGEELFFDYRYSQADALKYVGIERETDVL

[5] = biological target: Protein arginine N-methyltransferase 7 (Homo sapiens) (UniProt Q9NVM4); experiment: Inhibition of PRMT7 (unknown origin) at 1 to 10 uM by AlphaLlSA assay; conditions: dose 1-10 µM
Protein arginine N-methyltransferase 7 (Homo sapiens), sequence (Q9NVM4 whole entry): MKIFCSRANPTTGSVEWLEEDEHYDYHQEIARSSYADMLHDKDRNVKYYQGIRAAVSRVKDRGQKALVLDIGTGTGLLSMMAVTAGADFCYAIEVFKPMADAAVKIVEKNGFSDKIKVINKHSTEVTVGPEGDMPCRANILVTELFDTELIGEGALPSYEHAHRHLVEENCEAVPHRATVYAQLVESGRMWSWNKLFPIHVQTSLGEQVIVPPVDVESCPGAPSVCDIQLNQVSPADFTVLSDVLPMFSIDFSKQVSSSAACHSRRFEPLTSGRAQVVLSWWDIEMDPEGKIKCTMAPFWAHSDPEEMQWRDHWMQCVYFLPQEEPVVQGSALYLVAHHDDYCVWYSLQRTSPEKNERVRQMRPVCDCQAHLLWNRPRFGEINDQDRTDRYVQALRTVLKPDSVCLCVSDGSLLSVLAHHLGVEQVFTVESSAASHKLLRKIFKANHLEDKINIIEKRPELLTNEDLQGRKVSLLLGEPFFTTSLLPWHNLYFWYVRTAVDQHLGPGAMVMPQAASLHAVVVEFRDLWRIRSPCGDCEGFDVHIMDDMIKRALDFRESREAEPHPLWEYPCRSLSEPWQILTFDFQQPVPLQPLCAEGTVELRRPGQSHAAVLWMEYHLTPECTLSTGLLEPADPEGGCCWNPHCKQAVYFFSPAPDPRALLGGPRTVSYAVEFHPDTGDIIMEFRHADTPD

[6] = biological target: Histone-lysine N-methyltransferase EHMT2 (Homo sapiens) (UniProt Q96KQ7); experiment: Inhibition of G9a (unknown origin) at 1 to 10 uM by AlphaLlSA assay; conditions: dose 1-10 µM
Histone-lysine N-methyltransferase EHMT2 (Homo sapiens), sequence (Q96KQ7 whole entry): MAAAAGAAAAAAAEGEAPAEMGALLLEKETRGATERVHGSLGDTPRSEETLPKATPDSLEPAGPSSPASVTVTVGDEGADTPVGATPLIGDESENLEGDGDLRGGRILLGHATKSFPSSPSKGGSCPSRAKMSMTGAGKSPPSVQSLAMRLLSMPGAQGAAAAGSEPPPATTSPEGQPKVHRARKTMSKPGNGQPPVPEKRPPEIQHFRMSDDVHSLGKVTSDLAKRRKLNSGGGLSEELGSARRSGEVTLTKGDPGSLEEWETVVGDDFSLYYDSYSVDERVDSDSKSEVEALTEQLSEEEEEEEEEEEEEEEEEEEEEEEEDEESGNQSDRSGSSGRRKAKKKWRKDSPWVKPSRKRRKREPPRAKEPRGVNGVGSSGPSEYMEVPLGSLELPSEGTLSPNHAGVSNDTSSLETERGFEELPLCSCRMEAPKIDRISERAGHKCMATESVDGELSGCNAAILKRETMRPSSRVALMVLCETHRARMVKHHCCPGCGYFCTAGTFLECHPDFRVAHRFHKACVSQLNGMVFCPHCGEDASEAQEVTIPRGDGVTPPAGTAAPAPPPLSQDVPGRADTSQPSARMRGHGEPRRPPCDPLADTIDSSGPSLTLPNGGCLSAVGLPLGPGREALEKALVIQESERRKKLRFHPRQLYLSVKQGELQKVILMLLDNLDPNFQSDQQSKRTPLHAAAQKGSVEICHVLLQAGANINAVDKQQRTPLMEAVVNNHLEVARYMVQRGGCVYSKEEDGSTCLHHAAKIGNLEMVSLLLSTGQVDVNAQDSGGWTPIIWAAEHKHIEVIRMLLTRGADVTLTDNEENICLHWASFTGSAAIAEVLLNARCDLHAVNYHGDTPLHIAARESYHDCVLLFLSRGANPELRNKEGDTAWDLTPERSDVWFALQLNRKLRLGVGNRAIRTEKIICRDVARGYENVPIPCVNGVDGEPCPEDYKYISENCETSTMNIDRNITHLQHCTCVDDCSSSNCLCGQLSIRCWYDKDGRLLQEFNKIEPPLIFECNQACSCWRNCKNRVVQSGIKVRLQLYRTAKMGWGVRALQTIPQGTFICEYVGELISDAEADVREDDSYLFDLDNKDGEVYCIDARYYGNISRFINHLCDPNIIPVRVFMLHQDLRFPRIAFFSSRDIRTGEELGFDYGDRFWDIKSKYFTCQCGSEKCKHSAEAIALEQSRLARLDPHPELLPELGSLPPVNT

[7] = biological target: N-lysine methyltransferase SMYD2 (Homo sapiens) (UniProt Q9NRG4); experiment: Inhibition of SMYD2 (unknown origin) at 1 to 10 uM by AlphaLlSA assay; conditions: dose 1-10 µM
N-lysine methyltransferase SMYD2 (Homo sapiens), sequence (Q9NRG4 whole entry): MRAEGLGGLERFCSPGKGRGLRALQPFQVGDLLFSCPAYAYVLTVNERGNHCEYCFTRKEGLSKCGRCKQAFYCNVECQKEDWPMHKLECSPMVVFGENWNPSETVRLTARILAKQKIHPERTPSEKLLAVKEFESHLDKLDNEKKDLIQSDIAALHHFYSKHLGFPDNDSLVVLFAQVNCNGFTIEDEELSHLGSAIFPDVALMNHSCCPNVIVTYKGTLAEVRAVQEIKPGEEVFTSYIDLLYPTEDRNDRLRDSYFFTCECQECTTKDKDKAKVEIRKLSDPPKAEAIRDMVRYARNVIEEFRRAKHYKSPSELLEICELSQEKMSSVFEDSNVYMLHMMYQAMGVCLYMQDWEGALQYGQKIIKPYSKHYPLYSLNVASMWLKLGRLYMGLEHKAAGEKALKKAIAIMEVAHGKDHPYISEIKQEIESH

ES-2 = experiment: Antiproliferative activity against human ES2 cells assessed as inhibition of cell proliferation incubated for 72 hrs by MTT assay; format: functional, cell-based; conditions: ES-2, 72 h
SK-OV-3 = experiment: Antiproliferative activity against human SK-OV-3 cells assessed as inhibition of cell proliferation incubated for 72 hrs by MTT assay; format: functional, cell-based; conditions: SK-OV-3, 72 h
OVCAR-3 = experiment: Antiproliferative activity against human OVCAR-3 cells assessed as inhibition of cell proliferation incubated for 72 hrs by MTT assay; format: functional, cell-based; conditions: OVCAR-3, 72 h
A549 = experiment: Antiproliferative activity against human A549 cells assessed as inhibition of cell proliferation incubated for 72 hrs by MTT assay; format: functional, cell-based; conditions: A549, 72 h
SK-BR-3 = experiment: Antiproliferative activity against human SK-BR-3 cells assessed as inhibition of cell proliferation incubated for 72 hrs by MTT assay; format: functional, cell-based; conditions: SK-BR-3, 72 h
4T1 = experiment: Antiproliferative activity against mouse 4T1 cells assessed as inhibition of cell proliferation incubated for 72 hrs by MTT assay; format: functional, cell-based; conditions: 4T1, 72 h
BT-549 = experiment: Antiproliferative activity against human BT-549 cells assessed as inhibition of cell proliferation incubated for 72 hrs by MTT assay; format: functional, cell-based; conditions: BT-549, 72 h
PA-1 [8] = experiment: Antiproliferative activity against human PA-1 cells assessed as inhibition of cell proliferation incubated for 3 to 5 days by MTT assay; format: functional, cell-based; conditions: time 3-5 day, TDE = time-dependent effect
PA-1 [9] = experiment: Induction of apoptosis in human PA-1 cells assessed as necrotic cells at 5 uM incubated for 48 hrs by AnnexinV-FITC/PI staining based flow cytometry analysis (Rvb= 1.48%); format: functional
PA-1 [10] = experiment: Induction of apoptosis in human PA-1 cells assessed as necrotic cells at 10 uM incubated for 48 hrs by AnnexinV-FITC/PI staining based flow cytometry analysis (Rvb= 1.48%); format: functional
PA-1 [11] = experiment: Induction of apoptosis in human PA-1 cells assessed as necrotic cells at 20 uM incubated for 48 hrs by AnnexinV-FITC/PI staining based flow cytometry analysis (Rvb= 1.48%); format: functional
PA-1 [12] = experiment: Induction of apoptosis in human PA-1 cells assessed as necrotic cells at 40 uM incubated for 48 hrs by AnnexinV-FITC/PI staining based flow cytometry analysis (Rvb= 1.48%); format: functional
PA-1 [13] = experiment: Induction of apoptosis in human PA-1 cells assessed as late apoptotic cells at 5 uM incubated for 48 hrs by AnnexinV-FITC/PI staining based flow cytometry analysis (Rvb= 3.09%); format: functional
PA-1 [14] = experiment: Induction of apoptosis in human PA-1 cells assessed as late apoptotic cells at 10 uM incubated for 48 hrs by AnnexinV-FITC/PI staining based flow cytometry analysis (Rvb= 3.09%); format: functional
PA-1 [15] = experiment: Induction of apoptosis in human PA-1 cells assessed as early apoptotic cells at 10 uM incubated for 48 hrs by AnnexinV-FITC/PI staining based flow cytometry analysis (Rvb= 6.89%); format: functional
PA-1 [16] = experiment: Induction of apoptosis in human PA-1 cells assessed as early apoptotic cells at 20 uM incubated for 48 hrs by AnnexinV-FITC/PI staining based flow cytometry analysis (Rvb= 6.89%); format: functional
PA-1 [17] = experiment: Induction of apoptosis in human PA-1 cells assessed as viable cells at 5 uM incubated for 48 hrs by AnnexinV-FITC/PI staining based flow cytometry analysis (Rvb= 88.53%); format: functional; conditions: read-out: Activity
PA-1 [18] = experiment: Induction of apoptosis in human PA-1 cells assessed as viable cells at 20 uM incubated for 48 hrs by AnnexinV-FITC/PI staining based flow cytometry analysis (Rvb= 88.53%); format: functional; conditions: read-out: Activity
[19] = biological target: T1, Histone-lysine N-methyltransferase EZH2; experiment: Inhibition of EZH2 methyltransferase activity in human A2780 cells assessed as reduction in H3K27me3 level at 10 uM and measured upto 4 days by Western blot analysis; format: cell-based; conditions: time <= 4.0 day, TDE = time-dependent effect
Target sequence in this assay (Q15910 whole entry, looked up): as the sequence (Q15910 whole entry) above

[20] = biological target: T1, Histone-lysine N-methyltransferase EZH2; experiment: Inhibition of EZH2 methyltransferase activity in human A2780 cells assessed as reduction in H3K27me3 level incubated for 3 days by Western blot analysis; format: cell-based
Target sequence in this assay (Q15910 whole entry): as above

PA-1 [21] = experiment: Antiproliferative activity against human PA-1 cells assessed as reduction in cell viability at 10 uM incubated for 3 days followed by compound washout and measured after 4 days by microscopy analysis; format: functional, cell-based; conditions: time 3.0 day
[22] = AUCt in Sprague-Dawley rat at 5 mg/kg, iv and measured upto 24 hrs by LC-MS/MS analysis; format: ADME, organism-based; set-up: time < 24 hrs, dose 5 mg/kg, route iv; conditions: in vivo
[23] = MRT(t) in Sprague-Dawley rat at 5 mg/kg, iv and measured upto 24 hrs by LC-MS/MS analysis; format: ADME, organism-based; conditions: in vivo
PA-1 [24] = experiment: Antitumor activity against human PA-1 cells xenografted in BALB/C nude mouse assessed as reduction tumor cell proliferation at 75 to 150 mg/kg,po BID for 21 days by Ki67 staining based immunohistochemical analysis; format: functional, organism-based; conditions: dose 75-150 mg/kg, time 21.0 day
PA-1 [25] = experiment: Antitumor activity against human PA-1 cells xenografted in BALB/C nude mouse assessed as increase apoptosis by measuring cleaved caspase-3 positive cells at 75 to 150 mg/kg,po BID for 21 days by immunohistochemical analysis; format: functional, organism-based; conditions: dose 75-150 mg/kg, time 21.0 day
[26] = Toxicity in BALB/C nude mouse xenografted with human PA-1 cells assessed as pathological changes in hematological parameters at 75 to 150 mg/kg,po BID for 21 days; format: organism-based; conditions: in vivo, 504 h, dose 75-150 mg/kg, time 21 day
[27] = tested on: Histone-lysine N-methyltransferase EZH2 (Homo sapiens), Q15910 [Y641N]; conditions: dose 10.0 nM
Histone-lysine N-methyltransferase EZH2 (Homo sapiens), Q15910 [Y641N], sequence (Q15910 whole entry Y641N): as the sequence (Q15910 whole entry) above, with Y641N counted along it
Description: Inhibition of EZH2 Y614N mutant (unknown origin) at 10 nM by AlphaLlSA assay

[28] = tested on: Histone-lysine N-methyltransferase EZH2 (Homo sapiens), Q15910 [A677G]; conditions: dose 10.0 nM
Histone-lysine N-methyltransferase EZH2 (Homo sapiens), Q15910 [A677G], sequence (Q15910 whole entry A677G): as the sequence (Q15910 whole entry) above, with A677G counted along it
Description: Inhibition of EZH2 A667G mutant (unknown origin) at 10 nM by AlphaLlSA assay

IC50 [1]: 0.00172 µM
inhibition [2]: Active
inhibition [3]: Active
inhibition [4]: Active
inhibition [5]: inactive
inhibition [6]: inactive
inhibition [7]: inactive
IC50 (SK-OV-3): 56.4 µM
IC50 (OVCAR-3): 35.6 µM
IC50 (A549): 28.7 µM
IC50 (SK-BR-3): 22.8 µM
IC50 (4T1): 24.5 µM
IC50 (BT-549): 18.9 µM
inhibition [19]: Tde
IC50 [20]: 1.27 µM
AUCt [22]: 7225.47 ng·h/mL
MRT(t) [23]: 15.6 min
inhibition [27]: Active
inhibition [28]: Active
Structure (SMILES): C=CC(=O)Nc1ccc(C)c(-c2cc(C(=O)NCc3c(C)cc(C)[nH]c3=O)c(C)c(N(CC)C3CCOCC3)c2)c1
IC50 (ES-2): 36.4 µM
Activity (PA-1 [8]): Tde
Activity (PA-1 [9]): 1.22%
Activity (PA-1 [10]): 0.94%
Activity (PA-1 [11]): 3.36%
Activity (PA-1 [12]): 0.34%
Activity (PA-1 [13]): 5.21%
Activity (PA-1 [14]): 6.16%
Activity (PA-1 [15]): 22.39%
Activity (PA-1 [16]): 31.78%
viability at 5 µM (PA-1 [17]): 83.2%
viability at 20 µM (PA-1 [18]): 50.5%
Activity (PA-1 [21]): Active
Activity (PA-1 [24]): Active
Activity (PA-1 [25]): Active
Activity [26]: Non-Toxic
